Data from patent US11433042B2, “Methods and compositions for treating metabolic disorders” (Joslin Diabetes Center, Inc., priority 2017, dated 2022).
Entries after “also recorded” stand apart in the source; their conditions may differ.

Legend:
[1] = CLAMS study in cold conditions (4° C.); assay type: in vivo; conditions: mice, 1 μg/kg intravenously, 1 h at cold (4° C.)
Protocol: For CLAMS studies, mice were injected intravenously with 1 μg/kg body weight 12,13-diHOME in 0.1% BSA PBS or vehicle and then monitored using the CLAMS system in cold conditions (4° C.) for 1 hour. Respiratory exchange ratio (R.E.R.) was calculated as the ratio of total carbon dioxide produced to total oxygen consumed.

[2] = Oral lipid tolerance test; assay type: in vivo; conditions: mice given an oral bolus of triglyceride, serum triglyceride
lipoprotein lipase (LPL) = assay: mRNA expression by qPCR in tissue from 12,13-diHOME treated mice; assay type: in vivo; conditions: diet-induced obese mice, 2 weeks at 10 μg/kg body weight
Protocol: For the experiments with daily injections of 12,13-diHOME, mice were fed with a high-fat diet containing 60 kcal % fat (Research Diets Stock no. D12492) for 16 weeks prior to treatment and during the course of the experiment. Mice were first injected intraperitoneally daily with 1 ug/kg body weight, 12,13-diHOME in 0.1% BSA w/v in PBS or vehicle and body for one week, then injected every day with 10 ug/kg body weight two weeks. For all experiments, serum was collected and triglycerides were measured using a standard enzymatic assay (ZenBiosystems). Non-esterified FA were also measured with a colorimetric assay (Wako Chemicals USA). High-density and low-density lipoprotein fractions were isolated and cholesterol was measured with a colorimetric assay (Abcam). All mice were allowed ad libitum access to water and food. Total RNA was extracted from tissue with Trizol and purified using a spin column kit (Zymo Research). RNA (500 ng-1 μg) was reverse transcribed with a high-capacity complementary DNA (cDNA) reverse transcription kit (Applied Biosystems). Real-time PCR was performed in mouse tissues starting with 10 ng of cDNA and forward and reverse oligonucleotide primers (300 nM each) in a final volume of 10 μl with SYBR green PCR Master Mix (Roche). Fluorescence was determined and analyzed in an ABI Prism 7900 sequence detection system (Applied Biosystems). […]

[3] = Cold tolerance assay (body core temperature at 4° C.); assay type: in vivo; conditions: mice, 1 μg/kg retro-orbitally, cold challenge at 4° C., compared to vehicle and 12,13-epOME
Protocol: For cold tolerance assay, mice were injected retro-orbitally with 1 μg/kg body weight 12,13-diHOME (purchased from Cayman Chemical Company) in 0.1% w/v BSA in PBS or vehicle, then immediately placed in a cold room maintained at 4° C. and body core temperature was determined by rectal probe measurements. Mice injected retro-orbitally were also used to measure blood pressure and pulse with the tail cuff method (Hatteras Instruments).

[4] = Daily injections of 12,13-diHOME in diet-induced obese mice; assay type: in vivo
Protocol: For the experiments with daily injections of 12,13-diHOME, mice were fed with a high-fat diet containing 60 kcal % fat (Research Diets Stock no. D12492) for 16 weeks prior to treatment and during the course of the experiment. Mice were first injected intraperitoneally daily with 1 ug/kg body weight, 12,13-diHOME in 0.1% BSA w/v in PBS or vehicle and body for one week, then injected every day with 10 ug/kg body weight two weeks. For all experiments, serum was collected and triglycerides were measured using a standard enzymatic assay (ZenBiosystems). Non-esterified FA were also measured with a colorimetric assay (Wako Chemicals USA). High-density and low-density lipoprotein fractions were isolated and cholesterol was measured with a colorimetric assay (Abcam). All mice were allowed ad libitum access to water and food.

WT-1 brown adipocytes = assay: Seahorse Bioanalyzer oxygen consumption; assay type: cell-based
Protocol: WT-1 brown preadipocytes were seeded onto gelatin coated Seahorse Plates and differentiated according to standard protocols. Cells were starved for 1 h, then treated for 15 min with 1 μM 12,13-diHOME or methyl acetate vehicle. The oxygen consumption rates (OCR) were monitored in 200 μM palmitic acid plus 100 μM albumin in a Seahorse XF24 instrument using the standard protocol of 3 min mix, 2 min wait, and 3 min measure. For the normalization of respiration to protein content, cells were lysed in RIPA buffer and protein concentration was measured using the Pierce BCA kit (Life Technologies).

FATP1 = assay: Membrane fractionation and immunoblot, FATP1; assay type: cell-based; conditions: differentiated WT-1 brown adipocytes, 1 μM for 15 minutes
Protocol: WT-1 brown preadipocytes were differentiated according to a standard adipogenic differentiation protocol for 9 days before cells were serum starved for 1 hour. Cells were treated with 1 μM 12,13-diHOME or methyl acetate vehicle in 0.1% BSA w/v in PBS for 15 minutes before cells were scraped from tissue culture plates into homogenization buffer and membranes were separated according to previously published protocols (Nishiumi, S. & Ashida, H., Bioscience, biotechnology, and biochemistry. 71, 2343-2346 (2007)). Protein lysates were stored at −20° C. until further use. Protein concentrations were determined by using the Pierce BCA kit (Life Technologies) according to instructions. For immunoblots, lysates were diluted into Laemmli buffer and boiled, then loaded onto 10% Tris gels for SDS-PAGE. After complete separation of the proteins, these were transferred on a PVDF membrane (Amersham Biosciences), blocked in western blocking buffer (Roche), and primary antibodies listed in Table 1, below, were applied in blocking buffer over night at 4° C. After washing 4× for 15 min with TBS-T, secondary antibodies were applied for 1 h in blocking buffer. Membranes were washed again 3× times for 15 min in TBS-T and developed using chemiluminescence (ThermoFisher). After scanning films, densitometry was analyzed using ImageJ software.

[5] = diet-induced obese mice, daily for 2 weeks at 10 μg/kg body weight
[6] = obese mice, chronic treatment (i.e., one week)

In the case of CCCCCC(O)C(O)C/C=C\CCCCCCCC(=O)O (stereo not shown) [12,13-diHOME, 12,13-dihydroxy-9Z-octadecenoic acid], the carbon dioxide production [1] was “significant increases”, the oxygen consumption [1] was “significant increases” and the respiratory exchange ratio [1] was “decrease”. The oral lipid tolerance [2] was “improved”, the “expression of lipoprotein lipase (LPL) in BAT” value (lipoprotein lipase (LPL)) was “increased” and the “body temperature during cold challenge” value [3] was “protected mice from the decrease in body temperature; also recorded: protected mice from cold challenge”. The body weight [4, 5] was “no effect”, the “circulating non-esterified FA” value [4, 5] was “no effect” and the circulating triglyceride levels [4, 5] was “significantly decreased”. The glucose tolerance [4, 5] was “no effect”, the body weight [4, 6] was “without alteration” and the circulating triglyceride [4, 6] was “significant reduction”. For the same molecule, the basal respiration (WT-1 brown adipocytes; 1 μM for 15 min) was “significantly increased”, the maximal respiratory capacity (WT-1 brown adipocytes; data not shown) was “no effect” and the uncoupling (WT-1 brown adipocytes; data not shown) was “no effect”. The “membrane translocation of oligomeric FATP1” value (FATP1) was “robustly induced”.
